Consider eight molecules from article PMC10580383, “Development of Melanocortin 4 Receptor Agonists by Exploiting Animal-Derived Macrocyclic, Disulfide-Rich Peptide Scaffolds” (ACS Pharmacology & Translational Science, 2023).

In general, EC50 refers to the concentration needed to bring the measured effect to its halfway point. High values mean weaker potency, low ones greater potency. In general, Emax refers to the size of the effect at its maximum, as opposed to the concentration needed.

Where two headings read alike, the source gives them in different places. Where a SMILES comes first, the peptide text is derived from it. Bridges are numbered along the chain shown (N, C = ends). Where no end group is shown, it is not given here. [ ]: non-standard residue; d: D form. pGlu = O=C1CC[C@@H](C(=O)O)N1

One experiment concerns mouse MC4R-EGFP. Nature of the experiment: kinetic BRET β-arrestin-2 recruitment assay (MC4R-EGFP / β-arrestin-2-nanoluciferase). Particulars: ligand 10 μM; HEK293 cells, MC4R-EGFP and β-arrestin-2-NLuc; mean ligand-induced BRET from 312 to 2433 s, NDP-α-MSH set as 100; three independent experiments. Type of experiment: cell-based. How it is done:
Considering the physiological relevance of β-arrestins and their critical role in orchestrating MC4R signaling, we measured β-arrestin-2 recruitment in a kinetic bioluminescence resonance energy transfer (BRET) assay. We screened at a ligand concentration of 10 μM in HEK293 cells transiently expressing MC4R coupled to EGFP, and β-arrestin-2 fused to nanoluciferase. […] By contrast, Pr4LP1, Ar3LP1, Ar3LP2, and GoLP1 recruited β-arrestin-2 with greater efficiencies (>130%) than NDP-α-MSH (Figures 4 and S5B,C).
Figure 4 β-Arrestin-2 recruitment of designed MC4R peptide analogues. BRET assay was used to measure the transient interaction of MC4R-EGFP with β-arrestin-2-nanoluciferase (NLuc) in HEK293 cells over time following cell treatment with 10 μM of tachyplesin-1-like peptides (Ta1LPs, green), protegrin-4-like peptides (Pr4LPs, pink), arenicin-3-like peptides (Ar3LPs, orange), and gomesin-like peptides (GoLPs, blue). Relative BRET quantification was determined by calculating the mean value of ligand-induced BRET for each peptide ligand from 312 to 2433 s which was then divided by the mean value of ligand-induced BRET of NDP-α-MSH set as 100. Data are shown as mean ± SEM from three independent experiments.
BRET assay was performed as previously described.[32] Briefly, β-arrestin-2-nano luciferase and mouse MC4R-EGFP were cotransfected in a 1:10 ratio. 16 h post-transfection, 50,000 cells in 100 μL of phenol red-free DMEM with 10% FBS per well were transferred into white clear bottom 96-well plates and incubated overnight. On the day of the assay, cells were incubated for 1 h at 37 °C in phenol red- and serum-free DMEM. Furimazine (diluted 1:50) and peptide ligands (4×) were prepared in Hank’s balanced salt solution (HBSS), respectively. Prior to establishing the baseline and measuring kinetic BRET, furimazine was incubated for 5 min at 37 °C. The ability of peptide ligands to induce β-arrestin-2 recruitment was assessed by measuring light emissions for EGFP (510 nm) and nanoluciferase (460 nm) over 35 min using Flexstation 3 (Molecular Devices, San Jose, USA). The BRET ratio was calculated as emission EGFP (510 nm)/emission nanoluciferase (460 nm). The ligand-induced BRET was calculated by subtracting […].

The target in experiment [1] is T1, mouse melanocortin 4 receptor (MC4R) (Mus musculus, UniProt P56450).
T1 construct: expressed in transfected cells; host or cells: HEK293 / HEK293T, transient transfection
Nature of the experiment: cAMP second messenger quantification assay (Cisbio HTRF cAMP Gs kit). The class given is cell-based. How it is done:
Figure 3 Functional cAMP assay of synthesized peptide analogues targeting MC4R. The accumulation of adenylyl cyclase-catalyzed cAMP of (A) tachylplesin-1-like peptides (Ta1LPs, green), (B) protegrin-4-like peptides ([…], pink), (C) arenicin-3-like peptides (Ar3LPs, orange), and (D) gomesin-like peptides (GoLPs, blue) was measured in HEK293 cells transiently expressing mouse melanocortin 4 receptor (MC4R). […] Data are from three independent experiments and are shown as mean ± SEM.
Assays were performed on cells transiently expressing mouse MC4R-EGFP. BamHI and SacI restriction sites were used to clone mouse MC4R N-terminally into a pEGFP-N1 vector. Peptide ligands were assayed for […] in a 384-well format and triplicate according to the Cisbio protocol. Briefly, 5 μL containing 10,000 cells per well was incubated with 5 μL of peptide solutions prepared 2× in 1× stimulation buffer. Following an incubation of peptide ligands at 37 °C for 30 min, d2-labeled cAMP and cryptate-labeled antibody (5 μL of each) were added to the mixture and further incubated for at least 1 h at room temperature. Subsequently, cAMP levels were quantified on a Flexstation 3 (Molecular Devices, San Jose, USA) using homogeneous time-resolved fluorescence resonance energy transfer and the ratio 665/620 nm. Samples were measured in technical triplicates.
Data analysis was performed with GraphPad Prism (GraphPad Software, San Diego). The potency (EC50) and maximum efficacy (Emax) values of peptide ligands were derived from functional data fitted to three- or four-parameter nonlinear regression curves constrained to a bottom of zero.
On the technique in general: Time-resolved FRET reads energy transfer from a long-lived donor to a nearby acceptor.

The target in experiment [2] is mouse melanocortin 4 receptor fused to EGFP (mouse) (UniProt P56450).
[3] abbreviates: HEK293, read-out: efficacy cAMP Emax ± SD.

Chain of mouse melanocortin 4 receptor fused to EGFP (mouse) (P56450 whole entry, the tested form may be a part): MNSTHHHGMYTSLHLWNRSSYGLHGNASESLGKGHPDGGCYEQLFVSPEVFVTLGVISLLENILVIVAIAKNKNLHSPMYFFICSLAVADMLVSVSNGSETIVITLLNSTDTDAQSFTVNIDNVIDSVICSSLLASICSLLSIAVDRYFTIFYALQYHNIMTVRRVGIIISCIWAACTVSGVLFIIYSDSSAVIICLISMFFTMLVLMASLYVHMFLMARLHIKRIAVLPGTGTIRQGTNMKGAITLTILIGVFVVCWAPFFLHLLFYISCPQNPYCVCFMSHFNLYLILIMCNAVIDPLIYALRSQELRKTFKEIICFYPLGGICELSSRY
T1 sequence (P56450 whole entry): as the sequence (P56450 whole entry, the tested form may be a part) above

Turning to `CC(C)[C@@H]1NC(=O)[C@H](Cc2c[nH]c3ccccc23)NC(=O)[C@H](Cc2c[nH]cn2)NC(=O)[C@@H](Cc2ccccc2)NC(=O)[C@H](Cc2c[nH]cn2)NC(=O)[C@@H]2CCCN2C(=O)[C@H](Cc2ccc(O)cc2)NC(=O)[C@H](C(C)C)NC(=O)[C@@H]2CSSC[C@H](NC1=O)C(=O)N[C@@H](Cc1ccc(O)cc1)C(=O)N[C@@H](CCCNC(=N)N)C(=O)N[C@@H](CCCNC(=N)N)C(=O)N[C@H](C(=O)N[C@@H](CC(N)=O)C(N)=O)CSSC[C@H](NC(=O)[C@H](Cc1ccccc1)NC(=O)CN)C(=O)N[C@@H](Cc1c[nH]c3ccccc13)C(=O)N[C@@H](Cc1ccc(O)cc1)C(=O)N[C@@H](C(C)C)C(=O)N2` [Ar3LP2] (H-GFCWYVCVYPH[dF]HWVCYRRCN-NH2; disulfide 3-20, 7-16), the “BRET efficacy of β-arrestin-2 recruitment relative to NDP-α-MSH” value with mouse MC4R-EGFP is listed as > 130%. Also, it took 20 nM to reach a half-maximal effect in experiment [1] (EC50). For the same molecule, the Emax in experiment [1] (HEK293; read-out: efficacy cAMP Emax ± SD) stood at 95 ± 10%.
As for `CC(C)[C@@H]1NC(=O)[C@H](CCCNC(=N)N)NC(=O)[C@H](Cc2c[nH]c3ccccc23)NC(=O)[C@H](CCCNC(=N)N)NC(=O)[C@@H](Cc2ccccc2)NC(=O)[C@H](Cc2c[nH]cn2)NC(=O)[C@H](Cc2ccc(O)cc2)NC(=O)[C@H](C(C)C)NC(=O)[C@@H]2CSSC[C@H](NC1=O)C(=O)N[C@@H](Cc1ccc(O)cc1)C(=O)N[C@@H](CCCNC(=N)N)C(=O)N[C@@H](CCCNC(=N)N)C(=O)N[C@H](C(=O)N[C@@H](CC(N)=O)C(N)=O)CSSC[C@H](NC(=O)[C@H](Cc1ccccc1)NC(=O)CN)C(=O)N[C@@H](Cc1c[nH]c3ccccc13)C(=O)N[C@@H](Cc1ccc(O)cc1)C(=O)N[C@@H](C(C)C)C(=O)N2` [Ar3LP5] (H-GFCWYVCVYH[dF]RWRVCYRRCN-NH2; disulfide 3-20, 7-16), the “BRET efficacy of β-arrestin-2 recruitment relative to NDP-α-MSH” value in the experiment on mouse MC4R-EGFP is reported as “less than 60%”. This molecule had a concentration giving a half-maximal response (EC50) in experiment [1] of 251 nM. Moreover, in experiment [1] (setting [3]), the Emax was determined as 99 ± 8%.
The like results for `CC(C)C[C@@H]1NC(=O)[C@H](CCCNC(=N)N)NC(=O)[C@H](CCCNC(=N)N)NC(=O)[C@@H](NC(=O)[C@@H]2CCC(=O)N2)CSSC[C@@H](C(=O)N[C@@H](CCCNC(=N)N)C(=O)NCC(=O)N[C@@H](CCCNC(=N)N)C(N)=O)NC(=O)[C@H](Cc2ccc(O)cc2)NC(=O)[C@H]([C@@H](C)O)NC(=O)[C@H](C(C)C)NC(=O)[C@@H]2CSSC[C@H](NC1=O)C(=O)N1CCC[C@H]1C(=O)N[C@@H](Cc1c[nH]cn1)C(=O)N[C@H](Cc1ccccc1)C(=O)N[C@@H](Cc1c[nH]cn1)C(=O)N[C@@H](Cc1c[nH]c3ccccc13)C(=O)N2` [GoLP1] ([pGlu]CRRLCPH[dF]HWCVTYCRGR-NH2; disulfide 2-16, 6-12) were, in that order, > 130%, 26 nM and 99 ± 3%.
Take `CC(C)[C@@H]1NC(=O)[C@H](CCCNC(=N)N)NC(=O)[C@H](Cc2c[nH]c3ccccc23)NC(=O)[C@H](Cc2c[nH]cn2)NC(=O)[C@@H](Cc2ccccc2)NC(=O)[C@H](Cc2c[nH]cn2)NC(=O)[C@H](Cc2ccc(O)cc2)NC(=O)[C@H](C(C)C)NC(=O)[C@@H]2CSSC[C@H](NC1=O)C(=O)N[C@@H](Cc1ccc(O)cc1)C(=O)N[C@@H](CCCNC(=N)N)C(=O)N[C@@H](CCCNC(=N)N)C(=O)N[C@H](C(=O)N[C@@H](CC(N)=O)C(N)=O)CSSC[C@H](NC(=O)[C@H](Cc1ccccc1)NC(=O)CN)C(=O)N[C@@H](Cc1c[nH]c3ccccc13)C(=O)N[C@@H](Cc1ccc(O)cc1)C(=O)N[C@@H](C(C)C)C(=O)N2` [Ar3LP4] (H-GFCWYVCVYH[dF]HWRVCYRRCN-NH2; disulfide 3-20, 7-16): the “BRET efficacy of β-arrestin-2 recruitment relative to NDP-α-MSH” value in the experiment with mouse MC4R-EGFP is reported as “less than 60%”. In addition, in experiment [1], the EC50 came out at 794 nM. In addition, the Emax in experiment [1] (setting [3]) is 106 ± 14%.
For `CC(C)C[C@@H]1NC(=O)[C@H](CCCNC(=N)N)NC(=O)[C@H](CCCNC(=N)N)NC(=O)[C@@H](NC(=O)[C@@H]2CCC(=O)N2)CSSC[C@@H](C(=O)N[C@@H](CCCNC(=N)N)C(=O)NCC(=O)N[C@@H](CCCNC(=N)N)C(N)=O)NC(=O)[C@H](Cc2ccc(O)cc2)NC(=O)[C@H]([C@@H](C)O)NC(=O)[C@H](C(C)C)NC(=O)[C@@H]2CSSC[C@H](NC1=O)C(=O)N[C@@H](Cc1c[nH]cn1)C(=O)N[C@H](Cc1ccccc1)C(=O)N[C@@H](Cc1c[nH]cn1)C(=O)N[C@@H](Cc1c[nH]c3ccccc13)C(=O)N2` [GoLP2] ([pGlu]CRRLCH[dF]HWCVTYCRGR-NH2; disulfide 2-15, 6-11), in that order: “less than 60%”, 158 nM and 116 ± 11%.

B1: protegrin-4-like peptide 3 (peptide)
peptide: RGGRLCYCH[dF]RWCFCVGR-NH2
modifications: disulfide 8-13, 6-15; N-terminus assumed
SMILES: CC(C)C[C@H](NC(=O)[C@H](CCCNC(=N)N)NC(=O)CNC(=O)CNC(=O)[C@@H](N)CCCNC(=N)N)C(=O)N[C@H]1CSSC[C@@H](C(=O)N[C@H](C(=O)NCC(=O)N[C@@H](CCCNC(=N)N)C(N)=O)C(C)C)NC(=O)[C@H](Cc2ccccc2)NC(=O)[C@@H]2CSSC[C@H](NC(=O)[C@H](Cc3ccc(O)cc3)NC1=O)C(=O)N[C@@H](Cc1c[nH]cn1)C(=O)N[C@H](Cc1ccccc1)C(=O)N[C@@H](CCCNC(=N)N)C(=O)N[C@@H](Cc1c[nH]c3ccccc13)C(=O)N2
In the case of B1, in experiment [2], the cAMP accumulation (Cisbio HTRF) in HEK293 cells transiently expressing mouse MC4R-EGFP: EC50 is 210 nM and the cAMP accumulation (Cisbio HTRF) in HEK293 cells transiently expressing mouse MC4R-EGFP: Emax (normalised to NDP-α-MSH) came to 99%.

B2: tachyplesin-1-like peptide 3 (peptide)
peptide: KWCFRVCH[dF]RWCYRRCR-NH2
modifications: disulfide 7-12, 3-16; N-terminus assumed
SMILES: CC(C)[C@@H]1NC(=O)[C@H](CCCNC(=N)N)NC(=O)[C@H](Cc2ccccc2)NC(=O)[C@@H](NC(=O)[C@H](Cc2c[nH]c3ccccc23)NC(=O)[C@@H](N)CCCCN)CSSC[C@@H](C(=O)N[C@@H](CCCNC(=N)N)C(N)=O)NC(=O)[C@H](CCCNC(=N)N)NC(=O)[C@H](CCCNC(=N)N)NC(=O)[C@H](Cc2ccc(O)cc2)NC(=O)[C@@H]2CSSC[C@H](NC1=O)C(=O)N[C@@H](Cc1c[nH]cn1)C(=O)N[C@H](Cc1ccccc1)C(=O)N[C@@H](CCCNC(=N)N)C(=O)N[C@@H](Cc1c[nH]c3ccccc13)C(=O)N2
For the molecule B2, in experiment [2], the cAMP accumulation (Cisbio HTRF) in HEK293 cells transiently expressing mouse MC4R-EGFP: EC50 was 17 nM and the cAMP accumulation (Cisbio HTRF) in HEK293 cells transiently expressing mouse MC4R-EGFP: Emax (normalised to NDP-α-MSH) came out at 98%.

B3: protegrin-4-like peptide 2 (peptide)
peptide: RGGRLCYCH[dF]HWCFCVGR-NH2
modifications: disulfide 8-13, 6-15; N-terminus assumed
SMILES: CC(C)C[C@H](NC(=O)[C@H](CCCNC(=N)N)NC(=O)CNC(=O)CNC(=O)[C@@H](N)CCCNC(=N)N)C(=O)N[C@H]1CSSC[C@@H](C(=O)N[C@H](C(=O)NCC(=O)N[C@@H](CCCNC(=N)N)C(N)=O)C(C)C)NC(=O)[C@H](Cc2ccccc2)NC(=O)[C@@H]2CSSC[C@H](NC(=O)[C@H](Cc3ccc(O)cc3)NC1=O)C(=O)N[C@@H](Cc1c[nH]cn1)C(=O)N[C@H](Cc1ccccc1)C(=O)N[C@@H](Cc1c[nH]cn1)C(=O)N[C@@H](Cc1c[nH]c3ccccc13)C(=O)N2
In experiment [2], B3 displayed a cAMP accumulation (Cisbio HTRF) in HEK293 cells transiently expressing mouse MC4R-EGFP: EC50 of 150 nM and a cAMP accumulation (Cisbio HTRF) in HEK293 cells transiently expressing mouse MC4R-EGFP: Emax (normalised to NDP-α-MSH) of 97%.
